The NIST ThermoML archive (doi:10.1016/j.fluid.2018.12.005)
“And” between values parts separate entries of the source, which are not always exact repeats. Equal entries are not always repeated. Numbers after ± are expanded uncertainties.

Tests used:
[1] = refractive index (Na D-line) (dimensionless); details: 298.15 K; 101.33 kPa; Liquid; Standard Abbe refractometry
[2] = Liquid; for mass density: 298.15 K, 101.33 kPa, Vibrating tube method; for vapor or sublimation pressure: Closed cell (Static) method

Row | Structure (SMILES) | refractive index [1] | mass density [2] | vapor or sublimation pressure ([2]; 283.15 K) | vapor or sublimation pressure ([2]; 293.15 K) | vapor or sublimation pressure ([2]; 303.15 K) | vapor or sublimation pressure ([2]; 313.15 K) | vapor or sublimation pressure ([2]; 323.16 K) | vapor or sublimation pressure ([2]; 283.14 K) | vapor or sublimation pressure ([2]; 283.16 K) | vapor or sublimation pressure ([2]; 293.14 K) | vapor or sublimation pressure ([2]; 303.12 K) | vapor or sublimation pressure ([2]; 313.13 K) | vapor or sublimation pressure ([2]; 313.2 K) | vapor or sublimation pressure ([2]; 323.13 K) | vapor or sublimation pressure ([2]; 323.17 K)
1 | CCCCCC [hexane] | 1.375 ± 0.002 | 655 ± 2 kg/m3 |  |  |  |  |  |  |  |  |  |  |  |  | 
2 | FC(F)(F)C(F)(F)C(F)(F)C(F)(F)C(F)(F)C(F)(F)C(F)(F)C(F)(F)F [octadecafluorooctane] | 1.268 ± 0.002 | 1755 ± 2 kg/m3 | 1.51 ± 0.2 kPa | 2.72 ± 0.2 kPa | 4.72 ± 0.2 kPa | 7.86 ± 0.21 kPa | 12.6 ± 0.21 kPa |  |  |  |  |  |  |  | 
3 | FC(F)(F)C(F)(F)C(F)(F)C(F)(F)C(F)(F)C(F)(F)F [perfluorohexane] | 1.251 ± 0.002 and 1.253 ± 0.002 | 1701 ± 7 kg/m3 and 1670 ± 2 kg/m3 |  | 23.4 ± 0.3 kPa | 36.3 ± 0.3 kPa |  |  | 14.6 ± 0.2 kPa | 14.4 ± 0.2 kPa | 23.5 ± 0.3 kPa | 36.2 ± 0.3 kPa | 54.1 ± 0.4 kPa | 54.4 ± 0.4 kPa | 78.8 ± 0.5 kPa | 78.9 ± 0.4 kPa
